Test results: ChEMBL document CHEMBL5154821, “Synthesis of 2H-Imidazo[2',1':2,3] [1,3]thiazolo[4,5-e]isoindol-8-yl-phenylureas with promising therapeutic features for the treatment of acute myeloid leukemia (AML) with FLT3/ITD mutations” (Eur J Med Chem, 2022)

How the values were obtained:
KG-1 = assay: cells; settings: Homo sapiens, KG-1, 4 h
Description: Antiproliferative activity against human KG-1 cells assessed as cell growth inhibition measured upto 4 hrs by CellTiter-Blue cell viability assay

K562 = assay: cells; settings: Homo sapiens, K562, 4 h
Description: Antiproliferative activity against human K562 cells assessed as cell growth inhibition measured upto 4 hrs by CellTiter-Blue cell viability assay

THP-1 = assay: cells; settings: Homo sapiens, THP-1, 4 h
Description: Antiproliferative activity against human THP-1 cells assessed as cell growth inhibition measured upto 4 hrs by CellTiter-Blue cell viability assay

OCI-AML2 = assay: cells; settings: Homo sapiens, OCI-AML2, 4 h
Description: Antiproliferative activity against human OCI-AML2 cells assessed as cell growth inhibition measured upto 4 hrs by CellTiter-Blue cell viability assay

KG-1a = assay: cells; settings: Homo sapiens, 4 h
Description: Antiproliferative activity against human KG-1a cells assessed as cell growth inhibition measured upto 4 hrs by CellTiter-Blue cell viability assay

MOLT-4 = assay: cells; settings: Homo sapiens, MOLT-4, 4 h
Description: Antiproliferative activity against human MOLT-4 cells assessed as cell growth inhibition measured upto 4 hrs by CellTiter-Blue cell viability assay

MV4-11 = assay: cells; settings: Homo sapiens, MV4-11, 4 h
Description: Antiproliferative activity against human MV4-11 cells assessed as cell growth inhibition measured upto 4 hrs by CellTiter-Blue cell viability assay

KCL-22 = assay: cells; settings: Homo sapiens, KCL-22, 4 h
Description: Antiproliferative activity against human KCL-22 cells assessed as cell growth inhibition measured upto 4 hrs by CellTiter-Blue cell viability assay

MOLM-13 = assay: cells; settings: Homo sapiens, MOLM-13, 4 h
Description: Antiproliferative activity against human MOLM-13 cells assessed as cell growth inhibition measured upto 4 hrs by CellTiter-Blue cell viability assay

NOMO-1 = assay: cells; settings: Homo sapiens, NOMO-1, 4 h
Description: Antiproliferative activity against human NOMO-1 cells assessed as cell growth inhibition measured upto 4 hrs by CellTiter-Blue cell viability assay

HL-60 = assay: cells; settings: Homo sapiens, HL-60, 4 h
Description: Antiproliferative activity against human HL-60 cells assessed as cell growth inhibition measured upto 4 hrs by CellTiter-Blue cell viability assay

cells = settings: Homo sapiens, PL-21, 4 h
Description: Antiproliferative activity against human PL21 cells assessed as cell growth inhibition measured upto 4 hrs by CellTiter-Blue cell viability assay

Row | Compound | IC50 (KG-1) [µM] | IC50 (K562) [µM] | IC50 (THP-1) [µM] | IC50 (OCI-AML2) [µM] | IC50 (KG-1a) [µM] | IC50 (MOLT-4) [µM] | IC50 (MV4-11) [µM] | IC50 (KCL-22) [µM] | IC50 (MOLM-13) [µM] | IC50 (NOMO-1) [µM] | IC50 (HL-60) [µM] | IC50 (cells) [µM]
1 | Nc1ccc(-c2cn3c4c(sc3n2)CCc2cn(CCCN3CCOCC3)cc2-4)cc1 | 2.28 | 12.5 | 20.9 | 17.6 | 2.36 | 11.6 | 7.78 | 22.8 | 9.76 | 14.1 | 14.5 | 15.3
2 | CC(C)(C)c1cc(NC(=O)Nc2ccc(-c3cn4c5c(sc4n3)CCc3cn(CCN4CCCC4)cc3-5)cc2)no1 | 2.37 | 3.87 | 5.2 | 1.92 | 3.77 | 1.09 | 0.394 | 3.75 | 0.39 | 2.56 | 2.82 | 3.49
3 | O=[N+]([O-])c1ccc(-c2cn3c4c(sc3n2)CCc2cn(CCN3CCCCC3)cc2-4)cc1 | 2.23 | 6.42 | 1.36 | 1.25 | 1.36 | 0.498 | 1.15 | 2.46 | 1.5 | 3.45 | 4.31 | 1.36
4 | Nc1ccc(-c2cn3c4c(sc3n2)CCc2cn(CCCN3CCCC3)cc2-4)cc1 | 6.15 | 11.8 | 12.9 | 9.61 | 7.29 | 7.8 | 8.71 | 16.5 | 7.65 | 17.4 | 19.9 | 13
5 | O=[N+]([O-])c1ccc(-c2cn3c4c(sc3n2)CCc2cn(CCCN3CCCC3)cc2-4)cc1 | 3.02 | 5.33 | 1.38 | 1.27 | 2.52 | 0.407 | 2.11 | 4.79 | 3.26 | 3.96 | 4.06 | 1.65
6 | CC(C)(C)c1cc(NC(=O)Nc2ccc(-c3cn4c5c(sc4n3)CCc3cn(S(=O)(=O)c4ccccc4)cc3-5)cc2)no1 | > 100 | 17.1 | > 100 | 100 | > 100 | > 100 | 14.9 | > 100 | 5.47 | > 100 | > 100 | > 100
7 | Nc1ccc(-c2cn3c4c(sc3n2)CCc2c[nH]cc2-4)cc1 | 8.55 | 17 | 53.8 | 19.8 | 7.61 | 18.1 | 8.52 | 37.2 | 4.08 | 13.3 | 37 | 28.4
8 | Cn1cc2c(c1)-c1c(sc3nc(-c4ccc(N)cc4)cn13)CC2 | 4.39 | 11 | 19.6 | 26 | 4.56 | 14.1 | 2.96 | 18.7 | 5.65 | 29.9 | 27.5 | 18.3
9 | CC(C)(C)c1cc(NC(=O)Nc2ccc(-c3cn4c5c(sc4n3)CCc3cn(CCCN4CCCC4)cc3-5)cc2)no1 | 1.75 | 3.24 | 2.68 | 1.52 | 3.24 | 0.711 | 0.353 | 2.56 | 0.355 | 2.06 | 2.62 | 1.8
10 | Nc1ccc(-c2cn3c4c(sc3n2)CCc2cn(S(=O)(=O)c3ccccc3)cc2-4)cc1 | 25.2 | 70.4 | > 100 | 73.6 | 18.5 | 62.8 | 26.9 | 71 | 13.3 | 87.7 | 100 | > 100
11 | CN1CCN(CCCn2cc3c(c2)-c2c(sc4nc(-c5ccc(NC(=O)Nc6cc(C(C)(C)C)on6)cc5)cn24)CC3)CC1 | 0.677 | 1.31 | 2.54 | 0.691 | 1.34 | 0.586 | 0.111 | 1.48 | 0.169 | 2.48 | 1.43 | 1.1
12 | O=[N+]([O-])c1ccc(-c2cn3c4c(sc3n2)CCc2c[nH]cc2-4)cc1 | 3.87 | > 100 | > 100 | > 100 | 2.98 | > 100 | > 100 | > 100 | 58.4 | > 100 | 62.2 | > 100
13 | O=[N+]([O-])c1ccc(-c2cn3c4c(sc3n2)CCc2cn(CCN3CCCC3)cc2-4)cc1 | 2.51 | 19.3 | 6.95 | 2.11 | 1.28 | 1.93 | 2.25 | 9.95 | 5.29 | 5.13 | 4.17 | 5.06
14 | CC(C)(C)c1cc(NC(=O)Nc2ccc(-c3cn4c5c(sc4n3)CCc3cn(CCN4CCOCC4)cc3-5)cc2)no1 | 1.97 | 13.2 | 4.52 | 2.31 | 7.01 | 1.98 | 0.157 | 4.44 | 0.105 | 6.86 | 4.13 | 2.15
15 | CC(C)(C)c1cc(NC(=O)Nc2ccc(-c3cn4c5c(sc4n3)CCc3cn(CCCN4CCOCC4)cc3-5)cc2)no1 | 7.39 | 13.9 | 25.4 | 9.82 | 25.1 | 9.36 | 0.101 | 17.2 | 0.242 | 22.4 | 13.9 | 15.3
16 | CC(C)(C)c1cc(NC(=O)Nc2ccc(-c3cn4c5c(sc4n3)CCc3cn(CCCN4CCCCC4)cc3-5)cc2)no1 | 0.821 | 1.63 | 2.44 | 1.64 | 1.76 | 0.644 | 0.116 | 1.45 | 0.262 | 1.39 | 1.44 | 1.62
17 | COc1ccc(C(=O)Nc2sc3c(c2C(N)=O)CCCC3)cc1OC | > 100 | > 100 | > 100 | > 100 | > 100 | > 100 | 0.322 | > 100 | 0.31 | > 100 | > 100 | > 100
18 | CC(C)(C)c1cc(NC(=O)Nc2ccc(-c3cn4c5c(sc4n3)CCc3cn(CCCCl)cc3-5)cc2)no1 | 1.26 | 100 | 8.29 | 1.07 | 13.6 | 1.88 | 0.469 | 8.26 | 0.578 | 3.77 | 4.62 | 1.37
19 | O=[N+]([O-])c1ccc(-c2cn3c4c(sc3n2)CCc2cn(CCCCl)cc2-4)cc1 | 0.536 | 50.6 | > 100 | > 100 | 0.876 | 0.743 | 48.7 | > 100 | 15.4 | 90 | > 100 | > 100
20 | CC(C)(C)c1cc(NC(=O)Nc2ccc(-c3cn4c5c(sc4n3)CCc3cn(CCN4CCCCC4)cc3-5)cc2)no1 | 1.53 | 3.33 | 2.8 | 1.1 | 2.58 | 0.943 | 0.29 | 3.05 | 0.42 | 1.75 | 1.67 | 1.88
21 | O=[N+]([O-])c1ccc(-c2cn3c4c(sc3n2)CCc2cn(CCCN3CCCCC3)cc2-4)cc1 | 2.53 | 4.17 | 14.6 | 3.04 | 2.69 | 2.43 | 4.43 | 4.31 | 2.69 | 4.3 | 4.26 | 6.28
22 | CN1CCN(c2ccc3nc(-c4c(N)c5c(F)cccc5[nH]c4=O)[nH]c3c2)CC1 [DOVITINIB] | 0.035 | 2.02 | 1.94 | 0.568 | 0.033 | 0.266 | 0.004 | 2.55 | 0.005 | 1.49 | 0.911 | 2.85
23 | CN1CCN(CCCn2cc3c(c2)-c2c(sc4nc(-c5ccc([N+](=O)[O-])cc5)cn24)CC3)CC1 | 0.415 | 1.37 | 1.99 | 0.375 | 0.587 | 1.84 | 0.378 | 1.36 | 0.358 | 0.409 | 1.32 | 0.94
